{"source": "paper PMC12731165", "about": "“Dual Modulation of Cardiac Ion Pumps: A Small-Molecule SERCA2a SUMOylation Enhancer Also Inhibits the Na^+/K^+-ATPase” (Biomedicines, 2025)", "key": {"[1]": {"biological_target": "T1, Na^+/K^+-ATPase (NKA), α1 isoform (Sus scrofa, UniProt P05024)", "T1 construct": "gene ATP1A1; native enzyme purified from porcine kidney outer medulla (α/β heterodimer); with NKA β-subunit (α/β heterodimer)", "test": "ouabain-sensitive ATPase activity, NADH-coupled assay at […] nm, […] °C", "type": "biochemical"}, "[2]": {"biological_target": "T1, Na^+/K^+-ATPase (NKA), α1 isoform", "test": "ouabain-sensitive ATP hydrolysis ([…] ouabain), NADH-coupled assay", "type": "biochemical"}}, "data": [{"smiles": "COc1ccc(-c2nnc(Nc3nc4c(OC)cccc4s3)o2)cc1", "note": "[N106, N-(4-methoxy-1,3-benzothiazol-2-yl)-5-(4-methoxyphenyl)-1,3,4-oxadiazol-2-amine]", "values": [{"measurement": "IC50", "setting": "[1]", "value": "7 ± 1", "unit": "µM"}]}, {"smiles": "C[C@@H]1O[C@@H](O[C@H]2C[C@@H](O)[C@]3(CO)[C@H]4[C@H](O)C[C@]5(C)[C@@H](C6=CC(=O)OC6)CC[C@]5(O)[C@@H]4CC[C@]3(O)C2)[C@H](O)[C@H](O)[C@H]1O", "note": "[ouabain]", "values": [{"measurement": "ouabain-sensitive ATP hydrolysis (500 μM ouabain), NADH-coupled assay", "setting": "[2]", "value": "The enzymatic activity was verified through ouabain (OUA)-sensitive ATP hydrolysis assays prior to use in experiments."}]}]}
